According to US20090042958A1, “Composition and method for treating immune-mediated skin disorders” (Geneblue Corporation, priority 2006, published 2009):
“And” between values parts separate entries of the source, which are not always exact repeats. Equal values may be shown once.

Columns and labels:
Assay type in all cases: cell-based, human
TNF-α = TNF-α release (ELISA) after UVB irradiation, EpiDerm/keratinocyte model; details: for TNF-α (pg/ml), Sample2 / TNF-α (pg/ml), sample1: TNF-α released into media after UVB ~30 mJ/cm^2; for TNF-α (pg/ml), Sample2: UVB + Vehicle 147; for TNF-α (pg/ml), sample1: UVB + Vehicle 257; for TNF-α Avg.: average of sample 1 and 2, UVB + Vehicle 202
Experimental: (§1) Stock solutions of test materials are listed below: • 1. UTL-5d stock: 1.7 mg/ml UTL-5d in a vehicle of 50:50 EtOH:PEG 600 v/v • 2. UTR-1 stock: 3.5 mg/ml UTR-1 in a vehicle of 50:50 EtOH:PEG 600 v/v • 3. Vehicle stock: 50:50 EtOH:PEG 600
(§2) Human epidermal keratinocytes were seeded into 6-well plates and grown at 37±2° C. and 5±1% CO2 using serum free Epilife media supplemented as recommended by the manufacturer. Upon reaching confluency, the media were removed and the cells were treated overnight with Epilife media containing 1% v/v each of the stock solutions above (Vehicle stock and UTR-1 stock). Final concentration was 35 μg/ml for UTR-1. Two wells in the 6-well plate were prepared for each treatment. After applying the test material the cells were incubated for 24 hours at 37±2° C. and 5±1% CO2.
At the end of the incubation period the culture media was removed via aspiration and replaced with phosphate buffered saline. The cells were then irradiated with ˜30 mJ/cm^2 of UVB radiation. Fresh culture media was then applied to the cells and the cells were incubated overnight at 37±2° C. and 5±1% CO2. After the incubation the cell culture media was collected to measure TNF-α release by a commercial ELISA Assay kit.

JAK3 = assay: Micro array gene expression analysis, JAK3; details: keratinocytes, UVB irradiated; treated/untreated (Cy5/Cy3)
Experimental: as §1, §2
(§3) At the end of the incubation period the culture media was removed via aspiration and replaced with phosphate buffered saline. […]
(§4) The cells were washed once with PBS and then a trypsin/EDTA solution was added to release the cells, followed by the addition of trypsin neutralizing solution. […] In general, (1) the fluorescence intensity of the gene marker should be greater than the background intensity, and (2) the ratio of Cy5/Cy3 (treated/untreated) fluorescence intensity needs to be greater than 1.3 or less than 0.66 to indicate a change of ±30% in gene expression.

MAP3K2 = assay: Micro array gene expression analysis, MAP3K2; details: keratinocytes, UVB irradiated; treated/untreated (Cy5/Cy3)
Experimental: as §1, §2, §3, §4

APOBEC1 = assay: Micro array gene expression analysis, APOBEC1; details: keratinocytes, UVB irradiated; treated/untreated (Cy5/Cy3)
Experimental: as §1, §2, §3, §4

CDCP1 = assay: Micro array gene expression analysis, CDCP1; details: keratinocytes, UVB irradiated; treated/untreated (Cy5/Cy3)
Experimental: as §1, §2, §3, §4

DEFA6 = assay: Micro array gene expression analysis, DEFA6; details: keratinocytes, UVB irradiated; treated/untreated (Cy5/Cy3)
Experimental: as §1, §2, §3, §4

EFA6R = assay: Micro array gene expression analysis, EFA6R; details: keratinocytes, UVB irradiated; treated/untreated (Cy5/Cy3)
Experimental: as §1, §2, §3, §4

EPHB4 = assay: Micro array gene expression analysis, EPHB4; details: keratinocytes, UVB irradiated; treated/untreated (Cy5/Cy3)
Experimental: as §1, §2, §3, §4

ITGB6 = assay: Micro array gene expression analysis, ITGB6; details: keratinocytes, UVB irradiated; treated/untreated (Cy5/Cy3)
Experimental: as §1, §2, §3, §4

PTGER1 = assay: Micro array gene expression analysis, PTGER1; details: keratinocytes, UVB irradiated; treated/untreated (Cy5/Cy3)
Experimental: as §1, §2, §3, §4

PTGER2 = assay: Micro array gene expression analysis, PTGER2; details: keratinocytes, UVB irradiated; treated/untreated (Cy5/Cy3)
Experimental: as §1, §2, §3, §4

PTGER3 = assay: Micro array gene expression analysis, PTGER3; details: keratinocytes, UVB irradiated; treated/untreated (Cy5/Cy3)
Experimental: as §1, §2, §3, §4

PTGFR = assay: Micro array gene expression analysis, PTGFR; details: keratinocytes, UVB irradiated; treated/untreated (Cy5/Cy3)
Experimental: as §1, §2, §3, §4

PTGIR = assay: Micro array gene expression analysis, PTGIR; details: keratinocytes, UVB irradiated; treated/untreated (Cy5/Cy3)
Experimental: as §1, §2, §3, §4

TGFB2 = assay: Micro array gene expression analysis, TGFB2; details: keratinocytes, UVB irradiated; treated/untreated (Cy5/Cy3)
Experimental: as §1, §2, §3, §4

TNFRSF6B = assay: Micro array gene expression analysis, TNFRSF6B; details: keratinocytes, UVB irradiated; treated/untreated (Cy5/Cy3)
Experimental: as §1, §2, §3, §4

TNFSF13 = assay: Micro array gene expression analysis, TNFSF13; details: keratinocytes, UVB irradiated; treated/untreated (Cy5/Cy3)
Experimental: as §1, §2, §3, §4

TUCAN = assay: Micro array gene expression analysis, TUCAN; details: keratinocytes, UVB irradiated; treated/untreated (Cy5/Cy3)
Experimental: as §1, §2, §3, §4

Row | Compound | TNF-α (pg/ml), Sample2 (TNF-α) | TNF-α (pg/ml), sample1 (TNF-α) | TNF-α Avg. (TNF-α) | JAK3 Gene expression (%) (JAK3) | MAP3K2 Gene expression (%) (MAP3K2) | APOBEC1 Gene expression (%) (APOBEC1) | CDCP1 Gene expression (%) (CDCP1) | DEFA6 Gene expression (%) (DEFA6) | EFA6R Gene expression (%) (EFA6R) | EPHB4 Gene expression (%) (EPHB4) | ITGB6 Gene expression (%) (ITGB6) | PTGER1 Gene expression (%) (PTGER1) | PTGER2 Gene expression (%) (PTGER2) | PTGER3 Gene expression (%) (PTGER3) | PTGFR Gene expression (%) (PTGFR) | PTGIR Gene expression (%) (PTGIR) | TGFB2 Gene expression (%) (TGFB2) | TNFRSF6B Gene expression (%) (TNFRSF6B) | TNFSF13 Gene expression (%) (TNFSF13) | TUCAN Gene expression (%) (TUCAN)
1 | Cc1cc(C(=O)Nc2ccc(Cl)cc2)no1 [UTL-5d] | 67 pg/mL | 61 pg/mL | 64 pg/mL | 34.7% and 29.3% | 59.9% | 29.2% | 44.1% | 44.3% | 29.2% | 35.8% | 24.3% | 33.8% | 39.9% | 42.7% | 24.5% | 27.0% | 38.2% | 52.1% | 47.0% | 26.0%
2 | Cc1cc(C(=O)O)no1 [UTR-1] | 119 pg/mL | 120 pg/mL | 120 pg/mL | 38.6% and 41.7% | 59.2% | 33.3% | 65.6% | 38.0% | 37.5% | 43.3% | 30.0% | 28.6% | 58.0% | 40.8% | 40.0% | 39.4% | 57.9% | 68.0% | 42.5% | 33.3%
